Among the test systems are RXF 393 renal; HT29 colon; MDA-MB-231 breast; HCT-116 colon; RPMI-8226 leukemia; A498 renal; HOP-62 NSCLC; BT-549 breast; MALME-3M melanoma; SK-OV-3 ovarian; MDA-MB-435; NCI-H460 lung; NCI-H226 lung; HL-60(TB) leukemia.
Common to all, as to test: DTP human tumour cell line panel, 48 h

SMILES strings stand for the structures. Several values for one entry are separate records, joined by “and”; a condition that tells them apart may be missing. Equal entries are not always repeated.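 Each compound was tested at five concentrations against cells in 96-well plates for 48 hours. Here, GI50 denotes the concentration required for 50% inhibition of growth. The concentration for full growth arrest is given as TGI.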

Broadly, the TGI is the concentration at which net growth stops. A high value points to less potent growth arrest. Regarding `CC(C)(C)CN1[C@@H]2CCCC[C@H]2N(CC(C)(C)C)P1(=O)C(O)/C=C/c1ccccc1` (stereo partly specified), the concentration for total growth inhibition (TGI) was > 100 µM with RXF 393 renal; > 100 µM with HT29 colon; > 100 µM with MDA-MB-231 breast; > 100 µM with HCT-116 colon; 56.1 µM with RPMI-8226 leukemia; 89.8 µM in the assay with A498 renal. The TGI with HOP-62 NSCLC is > 100 µM; in the assay on BT-549 breast it was > 100 µM; with MALME-3M melanoma it was 87.7 µM; in the assay with SK-OV-3 ovarian, > 100 µM; with MDA-MB-435, > 100 µM; in the assay with NCI-H460 lung, 85.3 µM. The total growth inhibition concentration (TGI) in the assay with NCI-H226 lung is 91.6 µM; with HL-60(TB) leukemia, 81.1 µM.

For `COC(=O)/C=C/C(=O)Nc1cc(Cl)c(Cl)cc1CC(=O)N(C)[C@H]1CCCC[C@@H]1N1CCCC1`, the TGI came out at 17.7 µM with RXF 393 renal; 41 µM with HT29 colon; 28.9 µM in the assay on MDA-MB-231 breast; 23.3 µM with HCT-116 colon; 19.2 µM in the assay on RPMI-8226 leukemia; 28.9 µM in the assay on A498 renal. Also, the TGI was 33.3 µM in the assay on HOP-62 NSCLC; 26.8 µM with BT-549 breast; 20.5 µM with MALME-3M melanoma; 37.8 µM with SK-OV-3 ovarian; > 39.3 µM in the assay on MDA-MB-435; 31.9 µM with NCI-H460 lung. Besides, the TGI came to 31.7 µM in the assay on NCI-H226 lung and 5.33 µM in the assay on HL-60(TB) leukemia.

In general, GI50 refers to the concentration giving 50% growth inhibition. As for `C=CCN1C(=O)/C(=C/c2ccc(OC)cc2)N=C1SC1OC(COC(C)=O)C(OC(C)=O)C(OC(C)=O)C1OC(C)=O` (stereo unspecified), the TGI in the assay on RXF 393 renal was 46.5 µM and 89.5 µM; with HT29 colon it was 22.4 µM; in the assay on MDA-MB-231 breast, 42.9 µM and > 100 µM; in the assay with HCT-116 colon it was > 100 µM; in the assay with RPMI-8226 leukemia, > 100 µM; with A498 renal it was > 100 µM and 86.2 µM. The total growth inhibition concentration (TGI) is 40 µM and > 100 µM in the assay on HOP-62 NSCLC; 38.1 µM and 96.1 µM in the assay with BT-549 breast; > 100 µM in the assay on MALME-3M melanoma; 36 µM and > 100 µM in the assay on SK-OV-3 ovarian; 46.5 µM and > 100 µM in the assay with MDA-MB-435; > 100 µM in the assay with NCI-H460 lung. The concentration for total growth inhibition (TGI) was 55.5 µM and > 100 µM in the assay on NCI-H226 lung; > 94 µM and 15.4 µM in the assay with HL-60(TB) leukemia. For the same compound, the GI50 is 18.8 µM and 39.2 µM in the assay on MDA-MB-231 breast; 17.5 µM and 90 µM with HOP-62 NSCLC; 18.6 µM and > 100 µM with MDA-MB-435; 24.7 µM and 99.9 µM in the assay with NCI-H460 lung; 11.5 µM and 2.9 µM in the assay with HL-60(TB) leukemia.

As to `Cc1c(-c2ccccc2)c(C#N)c2nnn(C)c(=O)n12`, the concentration for total growth inhibition (TGI) with RXF 393 renal, in the assay with HT29 colon, with MDA-MB-231 breast, in the assay with HCT-116 colon, with RPMI-8226 leukemia and in the assay with A498 renal was > 100 µM in each case. Moreover, the TGI in the assay with HOP-62 NSCLC, in the assay on BT-549 breast, with MALME-3M melanoma, with SK-OV-3 ovarian, in the assay on MDA-MB-435 and in the assay on NCI-H460 lung was > 100 µM each time. For the same compound, the TGI in the assay with NCI-H226 lung and with HL-60(TB) leukemia was > 100 µM throughout.

Consider `Oc1ccccc1-c1n[nH]c(-c2ccccc2O)n1`, for which the concentration for total growth inhibition (TGI) with RXF 393 renal is > 100 µM; in the assay on HT29 colon, > 100 µM; in the assay with MDA-MB-231 breast, > 100 µM; with HCT-116 colon, > 100 µM; in the assay with RPMI-8226 leukemia, > 31.1 µM; in the assay on A498 renal, > 100 µM. Also, the TGI in the assay on HOP-62 NSCLC, in the assay with BT-549 breast, in the assay on MALME-3M melanoma, in the assay with SK-OV-3 ovarian, in the assay with MDA-MB-435 and with NCI-H460 lung was > 100 µM throughout. In addition, the TGI is > 100 µM with NCI-H226 lung and > 23.7 µM in the assay with HL-60(TB) leukemia.

For `COc1cc(/C=C2\C(=O)N(c3ccc(NC(C)=O)cc3)C(c3ccccc3)S2(=O)=O)cc(OC)c1OC` (stereo unspecified), the TGI in the assay on RXF 393 renal, in the assay on HT29 colon, in the assay with MDA-MB-231 breast, with HCT-116 colon, in the assay with RPMI-8226 leukemia and in the assay with A498 renal was > 100 µM each time. Further, the TGI in the assay with HOP-62 NSCLC, in the assay on BT-549 breast, in the assay on MALME-3M melanoma, in the assay on SK-OV-3 ovarian, in the assay on MDA-MB-435 and with NCI-H460 lung was > 100 µM each time. Also, the TGI in the assay on NCI-H226 lung is > 100 µM; in the assay with HL-60(TB) leukemia it was 79.1 µM.

As for `CCOC(=O)C(C)c1nc2cc(C(F)(F)F)ccc2[nH]c1=O` (stereo unspecified), the concentration for total growth inhibition (TGI) in the assay with RXF 393 renal, in the assay with HT29 colon, with MDA-MB-231 breast, with HCT-116 colon, in the assay with RPMI-8226 leukemia and with A498 renal was > 100 µM throughout. In addition, the TGI in the assay on HOP-62 NSCLC, in the assay on BT-549 breast, in the assay with MALME-3M melanoma, with SK-OV-3 ovarian, with MDA-MB-435 and with NCI-H460 lung was > 100 µM throughout. Moreover, the TGI with NCI-H226 lung and in the assay on HL-60(TB) leukemia was > 100 µM throughout.

For the compound `N#CCCN(CCCN(C(=O)Nc1ccc(NC(=O)N(CCCN(CCC#N)C(N)=O)c2ccccc2)cc1)c1ccccc1)C(N)=O`, the total growth inhibition concentration (TGI) with RXF 393 renal, in the assay with HT29 colon, in the assay on MDA-MB-231 breast, in the assay on HCT-116 colon, in the assay on RPMI-8226 leukemia and with A498 renal was > 100 µM in each case. In addition, the TGI in the assay with HOP-62 NSCLC, in the assay with BT-549 breast, with MALME-3M melanoma, with SK-OV-3 ovarian, in the assay with MDA-MB-435 and with NCI-H460 lung was > 100 µM each time. The TGI in the assay on NCI-H226 lung and in the assay on HL-60(TB) leukemia was > 100 µM throughout.

With `COC(=O)C1Cc2c([nH]c3ccccc23)-c2[nH]c3ccccc3c2CC(NC(C)=O)C(=O)NCC(=O)NCC(=O)N1` (stereo unspecified), the TGI with RXF 393 renal, with HT29 colon, in the assay on MDA-MB-231 breast, in the assay with HCT-116 colon, in the assay with RPMI-8226 leukemia and in the assay with A498 renal was > 100 µM throughout. Also, the TGI in the assay with HOP-62 NSCLC, in the assay with BT-549 breast, with MALME-3M melanoma, in the assay with SK-OV-3 ovarian, with MDA-MB-435 and in the assay on NCI-H460 lung was > 100 µM throughout. Also, the total growth inhibition concentration (TGI) in the assay on NCI-H226 lung and in the assay on HL-60(TB) leukemia was > 100 µM each time.

For the compound `COc1cccc(N2C(=O)C3c4[nH]c5ccc(C)cc5c4C4CCC(C)CC4C3C2=O)c1` (stereo unspecified), the total growth inhibition concentration (TGI) with RXF 393 renal is 47.3 µM; with HT29 colon it was > 100 µM; in the assay with MDA-MB-231 breast it was > 100 µM; with HCT-116 colon it was > 100 µM; in the assay on RPMI-8226 leukemia, > 100 µM; with A498 renal it was > 100 µM. The TGI with HOP-62 NSCLC is 42.6 µM; in the assay on BT-549 breast, > 100 µM; with MALME-3M melanoma it was > 100 µM; in the assay on SK-OV-3 ovarian it was > 100 µM; in the assay on MDA-MB-435, > 100 µM; with NCI-H460 lung, > 100 µM. The figures for the concentration for total growth inhibition (TGI) with NCI-H226 lung and in the assay on HL-60(TB) leukemia were > 100 µM and 25.3 µM, respectively.

Take `CN(C)c1cccc(/C=C(\C#N)c2ccccc2)c1`: the total growth inhibition concentration (TGI) is 4.51 µM with RXF 393 renal; 2.57 µM in the assay on HT29 colon; 53.7 µM with MDA-MB-231 breast; 57.5 µM in the assay on HCT-116 colon; > 42.8 µM in the assay on RPMI-8226 leukemia; 35.4 µM in the assay on A498 renal. Moreover, the TGI with HOP-62 NSCLC was 8.65 µM; in the assay with BT-549 breast, > 100 µM; in the assay with MALME-3M melanoma, > 73.7 µM; in the assay with SK-OV-3 ovarian, > 49.9 µM; with MDA-MB-435, 0.18 µM; in the assay on NCI-H460 lung, 12.5 µM. Moreover, the total growth inhibition concentration (TGI) in the assay on NCI-H226 lung was found to be 24.6 µM; in the assay on HL-60(TB) leukemia, 1.34 µM.

`CC1(Cc2cc3c(cc2C2(c4ccc([N+](=O)[O-])cc4)OCCO2)OCO3)OCCO1`: the TGI is > 100 µM in the assay with RXF 393 renal; > 100 µM with HT29 colon; > 100 µM in the assay on MDA-MB-231 breast; > 100 µM in the assay on HCT-116 colon; 78.4 µM in the assay on RPMI-8226 leukemia; > 100 µM with A498 renal. Further, the TGI was > 100 µM in the assay on HOP-62 NSCLC; 98.9 µM with BT-549 breast; > 100 µM in the assay on MALME-3M melanoma; > 100 µM with SK-OV-3 ovarian; > 100 µM with MDA-MB-435; > 100 µM in the assay on NCI-H460 lung. The concentration for total growth inhibition (TGI) in the assay on NCI-H226 lung and in the assay on HL-60(TB) leukemia was > 100 µM in each case.

As to `O=C(/N=C1/OC(CN2CCOCC2)CN1C(=O)Nc1ccccc1)Nc1ccccc1` (stereo unspecified), the TGI in the assay with RXF 393 renal, in the assay on HT29 colon, with MDA-MB-231 breast, in the assay with HCT-116 colon, in the assay on RPMI-8226 leukemia and with A498 renal was > 100 µM each time. The TGI in the assay on HOP-62 NSCLC, in the assay with BT-549 breast, in the assay on MALME-3M melanoma, in the assay with SK-OV-3 ovarian, in the assay on MDA-MB-435 and in the assay on NCI-H460 lung was > 100 µM each time. In addition, the concentration for total growth inhibition (TGI) in the assay with NCI-H226 lung and in the assay with HL-60(TB) leukemia was > 100 µM in each case.

For the compound `N/N=C(/CC(O)(C(F)(F)F)C(F)(F)F)c1ccccc1`, the TGI in the assay with RXF 393 renal, with HT29 colon, in the assay on MDA-MB-231 breast, in the assay on HCT-116 colon, with RPMI-8226 leukemia and with A498 renal was > 10 µM in each case. In addition, the TGI in the assay with HOP-62 NSCLC, in the assay with BT-549 breast, in the assay on MALME-3M melanoma, in the assay on SK-OV-3 ovarian, in the assay with MDA-MB-435 and in the assay on NCI-H460 lung was > 10 µM each time. In addition, the TGI in the assay on NCI-H226 lung and in the assay with HL-60(TB) leukemia was > 10 µM in each case.
